These results are taken from ChEMBL document CHEMBL3352448, “Phytochemical analysis and antileukemic activity of polyphenolic constituents of Toona sinensis” (Bioorg Med Chem Lett, 2014).

Data set [1] is described as follows: (§1) Cytotoxicity against human HL60 cells assessed as cell survival at 50 uM after 72 hrs by CCK8 assay. It is filed as functional. To be noted: HL-60, 72 h, read-out: Survival. Background: Tetrazolium dyes change colour on reduction, which living cells bring about.
Data set [2] in a line: Retention time of the compound by UPLC analysis. It is filed as physicochemical.
For data set [3], the system named is HL-60. The experiment in a line: Induction of apoptosis in human HL60 cells assessed as nuclear fragmentation at 50 uM by Hoechst 33342 staining method. It is filed as functional, cell-based.
For data set [4], the system named is HL-60. Put plainly: Induction of apoptosis in human HL60 cells assessed as chromatin condensation at 50 uM by Hoechst 33342 staining method. It is filed as functional, cell-based.
Data set [5] deals with HL-60. Put plainly: Induction of apoptosis in human HL60 cells assessed as membrane blebbing at 50 uM by Hoechst 33342 staining method. It is filed as functional, cell-based.
Data set [6] concerns HL-60. The experiment in a line: Induction of cell morphological changes in human HL60 cells assessed as increase in cellular size at 50 uM by Giemsa staining method. It is filed as functional, cell-based.
Data set [7] deals with HL-60. The experiment in a line: Induction of cell morphological changes in human HL60 cells assessed as increase in cytoplasmic content at 50 uM by Giemsa staining method. It is filed as functional, cell-based.
For data set [8], the system named is HL-60. Put plainly: Induction of cell morphological changes in human HL60 cells assessed as increase in nuclear complexity at 50 uM by Giemsa staining method. It is filed as functional, cell-based.
Data set [9] concerns HL-60. The description is as §1. It is filed as functional.

Calls of active or inactive are those of the source. No cut-off for these calls is given here.

As for `O=C(O)c1cc(O)c(O)c(O)c1` [GALLIC ACID], the viability at 50 µM in [1] was determined as 4.3%. The Retention_time in [2] was determined as 5.04 min.
Take `Oc1cc(O)c2c(c1)O[C@H](c1ccc(O)c(O)c1)[C@@H](O)[C@@H]2c1c(O)cc(O)c2c1O[C@H](c1ccc(O)c(O)c1)[C@@H](O)C2`: the viability at 50 µM in data set [1] came out at 58.9%. The Retention_time in data set [2] was 14.6 min.
For `Oc1cc(O)c2c(c1)O[C@H](c1ccc(O)c(O)c1)[C@@H](O)C2` [CIANIDANOL] the same measures were 47% and 13.56 min.
`C[C@@H]1O[C@@H](Oc2c(-c3ccc(O)c(O)c3)oc3cc(O)cc(O)c3c2=O)[C@H](O)[C@H](O)[C@H]1O` [QUERCITRIN]: in data set [1], the viability at 50 µM came out at 46.8%. Moreover, the Retention_time in data set [2] was determined as 23.37 min.
For the compound `O=C(O[C@H]1[C@H](Oc2c(-c3ccc(O)cc3)oc3cc(O)cc(O)c3c2=O)O[C@H](CO)[C@@H](O)[C@@H]1O)c1cc(O)c(O)c(O)c1`, the viability at 50 µM in data set [1] came to 48.3%. In data set [2], this compound registered a Retention_time of 27.02 min.
Take `C[C@@H]1O[C@@H](Oc2c(-c3ccc(O)cc3)oc3cc(O)cc(O)c3c2=O)[C@H](O)[C@H](O)[C@H]1O` [AFZELIN]: in data set [1], the viability at 50 µM was determined as 45.8%. In addition, the Retention_time in data set [2] is listed as 25.42 min.
In the case of `O=C(OC[C@H]1O[C@@H](Oc2c(-c3ccc(O)cc3)oc3cc(O)cc(O)c3c2=O)[C@H](OC(=O)c2cc(O)c(O)c(O)c2)[C@@H](O)[C@@H]1O)c1cc(O)c(O)c(O)c1`, the viability at 50 µM in data set [1] was 24.6%. The outcome in [3], in data set [4], in data set [5], in [6], in [7] and in [8] was Active. This compound also showed a Retention_time in data set [2] of 23.37 min.
Take `O=c1c(O)c(-c2ccc(O)cc2)oc2cc(O)cc(O)c12`: the result in data set [9] was Active.
In turn, `Oc1cc(O)c2c(c1)O[C@H](c1ccc(O)c(O)c1)[C@H](O)C2` [(-)-EPICATECHIN] came in with a Retention_time in data set [2] of 17.1 min.
With `O=c1c(O)c(-c2ccc(O)c(O)c2)oc2cc(O)cc(O)c12` [QUERCETIN], in [1], the viability at 50 µM was found to be 29.7%. The Retention_time in [2] turned out to be 28.97 min.
`CCOC(=O)c1cc(O)c(O)c(O)c1` [ETHYLGALLATE]: the viability at 50 µM in data set [1] was 55.7%. Besides, the Retention_time in [2] is 20.55 min.
Consider `O=c1c(O[C@@H]2O[C@H](CO)[C@@H](O)[C@H](O)[C@H]2O)c(-c2ccc(O)cc2)oc2cc(O)cc(O)c12`, for which, in data set [9], the result was Active.
